Source: PMC7395062, “Multiparametric assessment of mitochondrial respiratory inhibition in HepG2 and RPTEC/TERT1 cells using a panel of mitochondrial targeting agrochemicals” (Archives of Toxicology, 2020)
Like-named read-outs stand apart in the source and are kept apart here.

What was measured:
[1] = tested on: HepG2 cells; assay: Resazurin reduction viability assay, 2D HepG2; type: cell-based, human; conditions: HepG2, galactose
Experimental: The HepG2 cell line, a human hepatocellular carcinoma, was obtained from ATCC (American Type Culture Collection, Wesel, Germany). […] Cells were maintained at 37 °C in a 5% CO2 humidified atmosphere, fed every 2 to 3 days and passaged at approximately 80% confluence. […] For galactose experiments, the medium was refreshed 24 h before exposure with galactose-containing medium. […] Culture medium was refreshed every 3–4 days and the culture was maintained for 21 days prior to dosing.
(§1) The conversion of resazurin to fluorescent resorufin was measured in a plate reader at excitation/emission 540/590 nm.
(§2) All results are average of 2–3 independent experiments.

[2] = tested on: HepG2 cells; assay: Mitochondrial membrane potential (Rho123) live confocal imaging; type: cell-based, human; conditions: HepG2, Rho123, 24 h
Experimental: Rhodamine 123 (Rho123) (Merck, R8004) was used in a live confocal imaging setting for the assessment of effects at MMP. Rho123 localises to mitochondria and the decline in fluorescence is proportional to a decrease in MMP (Johnson et al. [1980], [1981]). HepG2 were seeded at 10,000 cells/30 μL/well in a 384-wells μCLEAR® black plate (Greiner Bio-One, 781 091). Two days post-seeding, 30 μL complete HepG2 culture medium, containing 200 ng/μL Hoechst 33342 (Life technologies, H1399) and 1 μM Rho123, was added to the medium. After 1 h incubation at 37° C, the medium was removed and 25 μL complete DMEM containing 0.2 μM Rho123 and 100 nM propidium iodide (PI) (Merck, P4170) was added, followed by 25 μL of medium containing 2×, the desired concentration of test compound. The intensity of Hoechst, Rho123 and PI, was monitored using live confocal imaging for 24 h using the 408, 488 and 561 nm laser, respectively. The confocal imaging was performed using a Nikon TiE2000 with perfect focus system and xy-stage (Nikon, Amsterdam, The Netherlands). Quantification of the Hoechst, Rho123 and PI signal intensity and localization were performed using CellProfiler version 2.1.1 (Broad Institute, Cambridge, USA). The nuclear identification based on the Hoechst signal was performed using an internally created segmentation module (Di et al. [2012]), followed by a cytoplasmic identification based on a specific distance from these nuclei. The PI-positive nuclei were identified by masking the previous segmented nuclei and the PI signal. More than 10% overlap was considered as PI positive. All CellProfiler analyses were stored as HDF5 files. The combination of an internally developed R script, run in Rstudio (Boston, USA), was used for data extraction including Rho123 signal intensity, fraction PI positive and nuclear count.
(§3) All results are average of 2–3 independent experiments. […] Leist, University of Konstanz (Krebs et al. [2020]).

[3] = tested on: RPTEC/TERT1 cells; assay: Seahorse mitostress assay in intact cells (OCR/ECAR), RPTEC/TERT1; type: cell-based, human
Experimental: The Seahorse bioanalyzer simultaneously measures cellular oxygen consumption rates (OCR) and extracellular acidification rates (ECAR). The mitostress assay utilises a sequential addition of modulators of the oxidative phosphorylation to assess key parameters of mitochondrial function. […] It is worth noting here that RPTEC/TERT1 require longer differentiation time in the Seahorse plates, potentially due to sub-optimum gas exchange in the Seahorse culture plates. HepG2 cells were cultured at the density of 15,000 cells/well on collagen-coated (2.5 µg/µL collagen IV, Merck, C7521) Seahorse cell culture microplates two days prior to analysis.
The mitostress test was performed as described (Eakins et al. [2016]; Tilmant et al. [2018]). Immediately before the assay, cell culture medium was replaced with 180 µL of Seahorse XF Base Medium without phenol red (Agilent, 1003335-100), supplemented with 10 mM D-glucose (Merck, G7021), 5 mM HEPES (Merck, H4034), 2 mM sodium pyruvate (Merck, P5281) and 1 mM L-glutamine (Merck, G8540). Cells were allowed to equilibrate for 45 min in a non-CO2 37 °C incubator. […] OCR was measured five times after test compound injection and three times for all injections. Each measurement consisted of a 3 min mix and subsequent 3 min read cycle. […]

[4] = tested on: RPTEC/TERT1 cells; assay: Mitochondrial membrane potential (MMP) assay with JC-1; type: cell-based, human; conditions: RPTEC/TERT1, JC-1, 24 h
Experimental: JC-1 is a single-excitation dual-emission fluorescence-based assay that allows for ratiometric semiquantitative assessment of mitochondrial membrane potential (Perry et al. [2011]). For quantification of changes in MMP cells were pre-loaded, for approximately 1.5 h, with the JC-1 pre-loading solution containing 9 µM JC-1 (Invitrogen, 65-0851-38), 9 µL/mL Pluronic F-127 10% in water (Invitrogen, P6866) and 5 µM Cyclosporine A (CsA) (Merck, 30024), a P-glycoprotein (P-gp) inhibitor, to prevent dye extrusion due to the expression of efflux pumps in RPTEC/TERT1 cell line. After this incubation time, cells were washed and exposed to test compounds dissolved in a JC-1 treatment solution containing 0.5 µM JC-1, 1.5 µL/mL Pluronic F-127 and 1 µM CsA for the desired time. We have previously determined that CsA at up to 5 µM has no adverse effect on RPTEC/TERT1 cells for up to 14 days (Wilmes et al. [2013]). Fluorescence was measured in a plate reader at excitation 492 nm and dual emission, 535 nm for monomers and 590 nm for dimers. Results are presented as the dimer/monomer ratio and expressed as percentage of untreated samples.
as §3

[5] = tested on: CII/CIII (succinate dehydrogenase / cytochrome bc1 complex); type: cell-based, human; conditions: permeabilised HepG2; sequential substrates/inhibitors
Experimental: The test compound is injected and OCR is measured. […] OCR is measured for the second time. […] A third and final OCR measurement is conducted.
Compounds were injected sequentially and OCR was measured twice. […] ETC inhibition is determined in decreased OCR.
as §2

[6] = tested on: HepG2 cells; assay: Seahorse mitostress assay in intact cells (OCR/ECAR), HepG2; conditions: seen at 2 and 10 µM
[7] = tested on: RPTEC/TERT1 cells; assay: Resazurin reduction viability assay, RPTEC/TERT1; type: cell-based, human
Experimental: These cells were obtained under licence from Evercyte GmBH, Vienna Austria. […] For experiments, cells were plated in a required format plate, allowed to become contact-inhibited and fed 24 h prior to treatment exposure. For experiments in galactose condition, cells were fed 24 h prior to experiment with culture medium (custom made DMEM/F12, PromoCell) in which 5 mM glucose was replaced with 5 mM galactose (Merck, G5388).
as §1, §2

[8] = tested on: HepG2 cells; assay: Cell death (PI staining) in 2D HepG2 by live confocal imaging; type: cell-based, human
Experimental: After 1 h incubation at 37° C, the medium was removed and 25 μL complete DMEM containing 0.2 μM Rho123 and 100 nM propidium iodide (PI) (Merck, P4170) was added, followed by 25 μL of medium containing 2×, the desired concentration of test compound. […] The confocal imaging was performed using a Nikon TiE2000 with perfect focus system and xy-stage (Nikon, Amsterdam, The Netherlands). Quantification of the Hoechst, Rho123 and PI signal intensity and localization were performed using CellProfiler version 2.1.1 (Broad Institute, Cambridge, USA). […] The PI-positive nuclei were identified by masking the previous segmented nuclei and the PI signal. More than 10% overlap was considered as PI positive. All CellProfiler analyses were stored as HDF5 files. The combination of an internally developed R script, run in Rstudio (Boston, USA), was used for data extraction including Rho123 signal intensity, fraction PI positive and nuclear count.
as §2

Which “Statistical significance, Viability Galactose settings Resazurin” value ([1]; h = 10 µM) does the source give for `Cc1nc(C(F)(F)F)c(C(=O)Nc2c(Br)cc(OC(F)(F)F)cc2Br)s1` [Thifluzamide] here?
The value was “* (*p < 0.05 (Tables 3, 4))”.

And the “Effect on MMP” value [2]?
Its value is “decreased MMP, but only at the highest concentrations”.

What about the “Effect on maximal respiration” value ([3]; RPTEC/TERT1, higher concentrations) of the same molecule?
Its value is “tendency to increase maximal respiration”.

`CC(C)Oc1cccc(NC(=O)c2ccccc2C(F)(F)F)c1` [Flutolanil] was tested. Which “Effect on MMP” value [4] did it give?
Its value is “actually increased it”.

And the “Effect on MMP” value [2]?
The value was “decreased MMP, but only at the highest concentrations”.

For `Cc1ccc(-c2c(Cl)nc(C#N)n2S(=O)(=O)N(C)C)cc1` [Cyazofamid], which “Statistical significance, Viability Galactose settings Resazurin” value ([1]; h = 10 µM) is on record?
Its value is “* (*p < 0.05 (Tables 3, 4))”.

And the “Uncoupling effect in mitostress OCR” value ([3]; RPTEC/TERT1, seen at 2 and 10 µM)?
The value was “strong uncoupling effect”.

And the “ETC-complex specificity pattern (CII/CIII)” value [5]?
The value was “CII inhibition pattern but only at 100 µM”.

And the “Uncoupling effect in mitostress OCR” value [6]?
The value was “strong uncoupling effect”.

For `Cc1nn(C)c(Oc2ccccc2)c1C=NOCc1ccc(C(=O)OC(C)(C)C)cc1` [Fenpyroximate], which “Statistical significance, Viability Glucose settings Resazurin” value [7] is on record?
The value was “* (*p < 0.05 (Tables 3, 4))”.

And the “Statistical significance, Viability Galactose settings Resazurin” value ([7]; RPTEC/TERT1, e = 0.08 µM)?
Its value is “* (*p < 0.05 (Tables 3, 4))”.

And the “Statistical significance, Viability Galactose settings Resazurin” value ([7]; RPTEC/TERT1, g = 7 µM)?
The value was “* (*p < 0.05 (Tables 3, 4))”.

What about the “Statistical significance, Viability Galactose settings Resazurin” value ([7]; RPTEC/TERT1, h = 10 µM) of the same molecule?
Its value is “* (*p < 0.05 (Tables 3, 4))”.

What about the “Statistical significance, Viability Glucose settings Resazurin” value ([7]; RPTEC/TERT1, glucose, g = 7 µM) of the same molecule?
The value was “* (*p < 0.05 (Tables 3, 4))”.

And the “Statistical significance, Viability Glucose settings Resazurin” value ([7]; RPTEC/TERT1, glucose, h = 10 µM)?
The value was “* (*p < 0.05 (Tables 3, 4))”.

What about the “Statistical significance, Viability Galactose settings Resazurin” value ([1]; d = 0.016 µM) of the same molecule?
Its value is “* (*p < 0.05 (Tables 3, 4))”.

What about the “Statistical significance, Viability Galactose settings Resazurin” value ([1]; e = 0.08 µM) of the same molecule?
Its value is “* (*p < 0.05 (Tables 3, 4))”.

What about the “Statistical significance, Viability Galactose settings Resazurin” value ([1]; g = 7 µM) of the same molecule?
The value was “* (*p < 0.05 (Tables 3, 4))”.

What about the “Statistical significance, Viability Galactose settings Resazurin” value ([1]; h = 10 µM) of the same molecule?
The value was “* (*p < 0.05 (Tables 3, 4))”.

And the “Statistical significance, Cell death (% 24h) Galactose” value [8]?
The value was “* (*p < 0.05 (Tables 3, 4))”.

Which “Effect on MMP” value [4] does the source give for `Cc1ccccc1C(=O)Nc1cccc(OC(C)C)c1` [Mepronil] here?
The value was “actually increased it”.

What about the “Effect on MMP” value [2] of the same molecule?
The value was “decreased MMP, but only at the highest concentrations”.
